In the NIST ThermoML archive (doi:10.1021/je800234h):

Assay: mn = molality of the nth substance listed, in mol/kg
Conditions: Liquid, Vibrating tube method

[Ca+2].[Cl-].[Cl-] [calcium chloride] + CCO
Conditions	mass density [kg/m3]
348.15 K, 20480 kPa, m1 = 0.1743	776.42
348.15 K, 20640 kPa, m1 = 1.55	872.48
348.15 K, 20670 kPa, m1 = 0.9896	834.64
348.15 K, 20840 kPa, m1 = 0.4379	796.01
348.15 K, 25040 kPa, m1 = 0.4379	799.76
348.15 K, 25060 kPa, m1 = 1.266	855.9
348.15 K, 25160 kPa, m1 = 0.09327	774.52
348.15 K, 25190 kPa, m1 = 1.55	876.08
348.15 K, 25620 kPa, m1 = 0.1743	781.15
348.15 K, 25740 kPa, m1 = 0.6899	818.02
348.15 K, 25940 kPa, m1 = 0.9896	839.09
348.15 K, 30420 kPa, m1 = 0.1743	785.25
348.15 K, 30480 kPa, m1 = 0.09327	779.14
348.15 K, 30610 kPa, m1 = 0.6899	821.98
348.15 K, 30610 kPa, m1 = 1.266	860.42
348.15 K, 30730 kPa, m1 = 0.4379	804.51
348.15 K, 30750 kPa, m1 = 1.55	880.1
348.15 K, 30860 kPa, m1 = 0.9896	842.93
348.15 K, 35150 kPa, m1 = 0.4379	807.92
348.15 K, 35290 kPa, m1 = 1.55	883.06
348.15 K, 35370 kPa, m1 = 0.9896	846.17
348.15 K, 35410 kPa, m1 = 0.09327	783.08
348.15 K, 35480 kPa, m1 = 1.266	864.22
348.15 K, 35640 kPa, m1 = 0.6899	825.77
348.15 K, 35860 kPa, m1 = 0.1743	789.53
348.15 K, 39260 kPa, m1 = 0.09327	785.92
348.15 K, 39380 kPa, m1 = 0.4379	810.96
348.15 K, 39490 kPa, m1 = 0.6899	828.45
348.15 K, 39880 kPa, m1 = 1.55	885.77
348.15 K, 39960 kPa, m1 = 1.266	867.59
348.15 K, 39970 kPa, m1 = 0.1743	792.5
348.15 K, 39970 kPa, m1 = 0.9896	849.2
373.15 K, 370 kPa, m1 = 0.09327	722.5
373.15 K, 390 kPa, m1 = 1.55	828.22
373.15 K, 420 kPa, m1 = 1.266	808.17
373.15 K, 680 kPa, m1 = 0.1743	728.72
373.15 K, 870 kPa, m1 = 0.6899	766.95
373.15 K, 920 kPa, m1 = 0.9896	788.74
373.15 K, 940 kPa, m1 = 0.4379	749.01
373.15 K, 4980 kPa, m1 = 1.266	813.49
373.15 K, 5040 kPa, m1 = 0.9896	794.18
373.15 K, 5060 kPa, m1 = 0.1743	735.26
373.15 K, 5140 kPa, m1 = 1.55	834.25
373.15 K, 5150 kPa, m1 = 0.6899	772.7
373.15 K, 5170 kPa, m1 = 0.4379	754.76
373.15 K, 5180 kPa, m1 = 0.09327	729.16
373.15 K, 9780 kPa, m1 = 1.266	818.85
373.15 K, 10150 kPa, m1 = 1.55	840.15
373.15 K, 10480 kPa, m1 = 0.09327	736.08
373.15 K, 10480 kPa, m1 = 0.4379	761.55
373.15 K, 10740 kPa, m1 = 0.1743	743.09
373.15 K, 10740 kPa, m1 = 0.6899	779.75
373.15 K, 10740 kPa, m1 = 0.9896	801.21
373.15 K, 15190 kPa, m1 = 0.4379	767.19
373.15 K, 15210 kPa, m1 = 0.6899	785.01
373.15 K, 15250 kPa, m1 = 0.1743	748.79
373.15 K, 15260 kPa, m1 = 1.266	824.65
373.15 K, 15290 kPa, m1 = 1.55	845.7
373.15 K, 15360 kPa, m1 = 0.9896	806.48
373.15 K, 15720 kPa, m1 = 0.09327	742.49
373.15 K, 20030 kPa, m1 = 1.266	829.44
373.15 K, 20140 kPa, m1 = 1.55	850.48
373.15 K, 20160 kPa, m1 = 0.4379	772.75
373.15 K, 20280 kPa, m1 = 0.09327	747.72
373.15 K, 20640 kPa, m1 = 0.1743	754.98
373.15 K, 20750 kPa, m1 = 0.9896	812.16
373.15 K, 20860 kPa, m1 = 0.6899	791.16
373.15 K, 25130 kPa, m1 = 0.4379	777.9
373.15 K, 25180 kPa, m1 = 0.1743	759.68
373.15 K, 25410 kPa, m1 = 1.266	834.54
373.15 K, 25670 kPa, m1 = 0.09327	753.48
373.15 K, 25750 kPa, m1 = 1.55	855.45
373.15 K, 25840 kPa, m1 = 0.6899	796.14
373.15 K, 25940 kPa, m1 = 0.9896	817.13
373.15 K, 29980 kPa, m1 = 1.266	838.62
373.15 K, 30140 kPa, m1 = 1.55	858.93
373.15 K, 30150 kPa, m1 = 0.6899	800.1
373.15 K, 30160 kPa, m1 = 0.9896	820.83
373.15 K, 30240 kPa, m1 = 0.4379	782.77
373.15 K, 30290 kPa, m1 = 0.09327	758.06
373.15 K, 30410 kPa, m1 = 0.1743	764.51
373.15 K, 35070 kPa, m1 = 1.266	842.89
373.15 K, 35370 kPa, m1 = 0.4379	787.22
373.15 K, 35420 kPa, m1 = 0.09327	762.76
373.15 K, 35480 kPa, m1 = 1.55	862.67
373.15 K, 35840 kPa, m1 = 0.6899	804.85
373.15 K, 35870 kPa, m1 = 0.1743	768.88
373.15 K, 35870 kPa, m1 = 0.9896	825.32
373.15 K, 39260 kPa, m1 = 0.4379	790.31
373.15 K, 39740 kPa, m1 = 0.1743	771.57
373.15 K, 39910 kPa, m1 = 0.09327	766.53
373.15 K, 39940 kPa, m1 = 0.6899	807.94
373.15 K, 39960 kPa, m1 = 0.9896	828.19
373.15 K, 39970 kPa, m1 = 1.266	846.74
373.15 K, 39970 kPa, m1 = 1.55	865.39
398.15 K, 620 kPa, m1 = 1.266	780.71
398.15 K, 680 kPa, m1 = 0.09327	692.59
398.15 K, 740 kPa, m1 = 1.55	801.26
398.15 K, 950 kPa, m1 = 0.4379	719.54
398.15 K, 970 kPa, m1 = 0.6899	737.62
398.15 K, 1030 kPa, m1 = 0.1743	700.75
398.15 K, 1060 kPa, m1 = 0.9896	760.33
398.15 K, 5070 kPa, m1 = 0.1743	707.51
398.15 K, 5070 kPa, m1 = 0.9896	766.76
398.15 K, 5100 kPa, m1 = 0.09327	700.41
398.15 K, 5160 kPa, m1 = 0.6899	744.53
398.15 K, 5180 kPa, m1 = 1.266	786.93
398.15 K, 5380 kPa, m1 = 0.4379	726.88
398.15 K, 5470 kPa, m1 = 1.55	808.33
398.15 K, 10020 kPa, m1 = 0.6899	752.01
398.15 K, 10060 kPa, m1 = 1.266	793.27
398.15 K, 10080 kPa, m1 = 0.09327	708.63
398.15 K, 10290 kPa, m1 = 0.4379	734.49
398.15 K, 10460 kPa, m1 = 1.55	815.02
398.15 K, 10540 kPa, m1 = 0.1743	716.08
398.15 K, 10540 kPa, m1 = 0.9896	774.89
398.15 K, 15240 kPa, m1 = 0.6899	759.43
398.15 K, 15290 kPa, m1 = 0.1743	722.99
398.15 K, 15290 kPa, m1 = 0.9896	781.35
398.15 K, 15410 kPa, m1 = 0.09327	716.75
398.15 K, 15610 kPa, m1 = 0.4379	742.12
398.15 K, 15620 kPa, m1 = 1.266	800.09
398.15 K, 15620 kPa, m1 = 1.55	821.29
398.15 K, 20030 kPa, m1 = 0.09327	723.21
398.15 K, 20080 kPa, m1 = 1.266	805.26
398.15 K, 20140 kPa, m1 = 0.1743	729.54
398.15 K, 20140 kPa, m1 = 1.55	826.33
398.15 K, 20410 kPa, m1 = 0.9896	787.68
398.15 K, 20480 kPa, m1 = 0.4379	748.53
398.15 K, 20620 kPa, m1 = 0.6899	766.4
398.15 K, 24980 kPa, m1 = 0.1743	735.56
398.15 K, 25060 kPa, m1 = 0.09327	729.63
398.15 K, 25080 kPa, m1 = 0.9896	792.89
398.15 K, 25340 kPa, m1 = 0.4379	754.4
398.15 K, 25340 kPa, m1 = 1.55	831.69
398.15 K, 25640 kPa, m1 = 1.266	811.31
398.15 K, 25890 kPa, m1 = 0.6899	772.57
398.15 K, 30030 kPa, m1 = 1.266	815.79
398.15 K, 30060 kPa, m1 = 0.4379	759.57
398.15 K, 30140 kPa, m1 = 0.6899	777.06
398.15 K, 30170 kPa, m1 = 0.09327	735.52
398.15 K, 30470 kPa, m1 = 1.55	836.6
398.15 K, 30740 kPa, m1 = 0.9896	798.47
398.15 K, 30780 kPa, m1 = 0.1743	742.1
398.15 K, 35180 kPa, m1 = 0.09327	740.65
398.15 K, 35180 kPa, m1 = 0.4379	764.61
398.15 K, 35460 kPa, m1 = 0.1743	746.84
398.15 K, 35740 kPa, m1 = 1.266	821.22
398.15 K, 35830 kPa, m1 = 1.55	841.39
398.15 K, 35940 kPa, m1 = 0.6899	782.51
398.15 K, 35970 kPa, m1 = 0.9896	802.93
398.15 K, 39290 kPa, m1 = 0.6899	785.29
398.15 K, 39380 kPa, m1 = 0.4379	768.3
398.15 K, 39760 kPa, m1 = 1.55	844.7
398.15 K, 39790 kPa, m1 = 0.1743	750.79
398.15 K, 39860 kPa, m1 = 0.9896	805.8
398.15 K, 39920 kPa, m1 = 0.09327	744.93
398.15 K, 39920 kPa, m1 = 1.266	824.91
